Results reported in patent US20080161340A1, “Tetrahydroquinilinones, tetrahydronaphthyridones and derivatives thereof” (priority 2006, published 2008).

How the values were obtained:
Type in all cases: cell-based
rCB2 = target: T1, rCB2 (Rattus norvegicus, UniProt Q9QZN9); assay: cAMP assay, rCB2 in Table 7, agonist/inverse agonist; details: intracellular cAMP; + agonist, − inverse agonist
T1 sequence (Q9QZN9 1-360): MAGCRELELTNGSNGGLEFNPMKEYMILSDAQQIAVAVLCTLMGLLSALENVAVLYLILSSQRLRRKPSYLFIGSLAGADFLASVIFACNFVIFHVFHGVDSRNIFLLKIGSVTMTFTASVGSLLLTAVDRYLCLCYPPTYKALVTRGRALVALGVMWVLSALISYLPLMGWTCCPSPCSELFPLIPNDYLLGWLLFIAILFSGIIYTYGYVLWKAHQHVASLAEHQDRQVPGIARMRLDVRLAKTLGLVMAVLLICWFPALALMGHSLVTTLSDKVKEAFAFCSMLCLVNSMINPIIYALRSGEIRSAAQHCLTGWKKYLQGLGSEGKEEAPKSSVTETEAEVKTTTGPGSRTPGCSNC
Method: (§1) Receptor mediated responses were determined by measuring changes in intracellular cAMP using LANCE cAMP detection kit (cat #AD0264, PerkinElmer, Wellesley, Mass.) based on time-resolved fluorescence resonance energy transfer (TR-FRET). Changes in cAMP were determined in cells pre-incubated with IBMX (isobutyl methylxanthine) and prestimulated with NKH-477 (a water soluble forskolin derivative, cat #1603, Tocris, Ellisville, Mo.) to increase basal cAMP levels as detailed below.
(§2) On the day of the experiment, cells were spun at low speed for 5 min at room temperature. The supernatant was removed and cells were resuspended in stimulation buffer (Hanks Buffered Salt Solution/5 mM HEPES, containing 0.5 mM IBMX (cat #17018, Sigma) and 0.02% BSA (PerkinElmer, cat #CR84-100)). Cell clumps were removed by filtering through cell strainer 40 μm (BD Falcon, Discovery Labware, Bedford, Mass.) and diluted to 2×10^5 cells/mL. Antibody supplied with the LANCE cAMP immunoassay kit was then added according to the manufacturer's instructions. An aliquot of cells was taken for un-induced controls. To the remaining cells was added NKH-477 (a water soluble forskolin derivative, Tocris cat #1603) to a final concentration of 2-8 μM. Cells were then incubated for 30 min at room temperature prior to adding to Proxiplates containing test compounds (final DMSO concentration was less than 0.5%) with a Multidrop bulk dispenser, followed by a sixty minute incubation at room temperature. The response was stopped by addition of the detection mix supplied with the LANCE kit.
(§3) The reagents were allowed to equilibrate for three hours prior to reading on an Envision multi-mode detector (PerkinElmer). TR-FRET was measured using a 330-380 nm excitation filter, a 665 nm emission filter, dichroic mirror 380 nm and Z=1 mm.
(§4) Cyclic AMP concentrations in each well were back-calculated from a cAMP standard curve run concurrently during each assay. Each plate contained 16 wells of forskolin stimulated cells and 16 wells of forskolin plus CP55,940-treated. CP55,940-treated cells were treated with CP55,940 (Tocris cat. # 0949) at 1 μm and the maximal response was used as the full range (100%) standard. WIN55,212 (Tocris cat. # 1038) was used as an internal standard. Concentrations of cAMP were expressed as a percent of the difference of these two groups of wells. Concentration-response data including ECso (the concentration of compound producing 50% of the maximal response) and intrinsic activity (the percent maximal activation compared to full activation by CP55,940) were determined using a four-parameter non-linear regression algorithm (Xlfit equation 251, IDBS).

hCB1 = target: T2, hCB1 (Homo sapiens, UniProt P21554); assay: cAMP assay (LANCE TR-FRET) in CHO-K1 cells stably expressing hCB1, agonist/inverse agonist; details: intracellular cAMP, CHO-K1 hCB1 cells prestimulated with NKH-477; + agonist, − inverse agonist; read-out: hCB1 EC50 class
T2 construct: host or cells: CHO-K1
Method: (§5) The ability of compounds to act as agonists or inverse agonists at human CB2 and CB1 receptors (hCB2, hCB1, respectively) was determined by measuring changes in intracellular cAMP levels. Chinese Hamster Ovary (CHO-K1) cell lines stably expressing hCB2 (Genebank: X74328) or hCB1 (Genebank: X54937) were purchased from Euroscreen (Gosselies, Belgium).
(§6) Cell lines were grown in suspension in EX-CELL 302 CHO Serum-free medium (Sigma, cat #14324C) supplemented with 1% Fetal Bovine Serum, glutamine and non-essential amino-acids under 0.4 mg/mL G418 selection.
as §1, §2, §3, §4

hCB2 = target: T3, hCB2 (Homo sapiens, UniProt P34972); assay: cAMP assay (LANCE TR-FRET) in CHO-K1 cells stably expressing hCB2, agonist/inverse agonist; details: intracellular cAMP, CHO-K1 hCB2 cells prestimulated with NKH-477; + agonist, − inverse agonist
T3 construct: host or cells: CHO-K1
Method: as §5, §6, §1, §2, §3, §4

T2 sequence (P21554 whole entry): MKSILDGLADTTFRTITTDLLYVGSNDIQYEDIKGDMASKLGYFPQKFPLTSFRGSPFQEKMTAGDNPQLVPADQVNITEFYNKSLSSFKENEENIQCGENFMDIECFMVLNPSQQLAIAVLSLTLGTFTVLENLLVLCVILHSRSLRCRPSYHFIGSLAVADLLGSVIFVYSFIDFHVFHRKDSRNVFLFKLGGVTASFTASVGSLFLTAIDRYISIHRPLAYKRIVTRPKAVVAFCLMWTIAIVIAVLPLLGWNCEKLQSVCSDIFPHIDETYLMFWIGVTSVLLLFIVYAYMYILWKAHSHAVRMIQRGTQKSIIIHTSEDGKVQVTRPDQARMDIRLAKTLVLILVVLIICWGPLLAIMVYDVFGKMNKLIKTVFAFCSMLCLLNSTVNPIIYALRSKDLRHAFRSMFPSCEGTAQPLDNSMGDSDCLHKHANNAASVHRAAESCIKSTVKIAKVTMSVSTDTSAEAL
T3 sequence (P34972 whole entry): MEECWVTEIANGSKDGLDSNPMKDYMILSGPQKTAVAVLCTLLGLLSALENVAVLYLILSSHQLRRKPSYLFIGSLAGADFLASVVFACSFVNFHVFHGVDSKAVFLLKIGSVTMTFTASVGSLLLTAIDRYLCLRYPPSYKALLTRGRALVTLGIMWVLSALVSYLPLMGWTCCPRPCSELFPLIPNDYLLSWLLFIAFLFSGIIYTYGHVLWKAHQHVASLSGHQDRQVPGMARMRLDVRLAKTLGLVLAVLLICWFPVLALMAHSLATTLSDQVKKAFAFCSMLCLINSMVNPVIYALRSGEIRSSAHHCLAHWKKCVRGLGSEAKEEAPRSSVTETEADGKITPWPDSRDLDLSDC

| Compound | rCB2 EC50 class (rCB2) | EC50 (hCB1) [µM] | hCB2 EC50 class (hCB2) |
| --- | --- | --- | --- |
| CS(=O)(=O)N1CCc2c(cc(-c3ccc(C(F)(F)F)cc3)c(=O)n2CC2CCC2)C1 [Compound 43, 1-(cyclobutylmethyl)-6-(methylsulfonyl)-3-(4-(trifluoromethyl)phenyl)-5,6,7,8-tetrahydro-1,6-naphthyridin-2(1H)-one] | +B | > 10 | +A |
| CC(=O)N1CCc2c(cc(-c3ccc(C(F)(F)F)cc3)c(=O)n2CC2CCC2)C1 [Compound 44, 6-acetyl-1-(cyclobutylmethyl)-3-(4-(trifluoromethyl)phenyl)-5,6,7,8-tetrahydro-1,6-naphthyridin-2(1H)-one] | +B | > 10 | +B |
| O=c1c(-c2ccoc2)cc2c(n1CC1CCC1)CCCC2 [Compound 12, 1-(cyclobutylmethyl)-3-(furan-3-yl)-5,6,7,8-tetrahydroquinolin-2(1H)-one] | +B | > 10 | +C |
| O=c1c(-c2cccc(C(F)(F)F)c2)cc2c(n1CC1CCC1)CCCC2 [Compound 6, 1-(cyclobutylmethyl)-3-(3-(trifluoromethyl)phenyl)-5,6,7,8-tetrahydroquinolin-2(1H)-one] | +A | > 10 | +A |
| COc1cccc(-c2cc3c(n(CC4CCC4)c2=O)CCN(S(C)(=O)=O)C3)c1 [Compound 52, 1-(cyclobutylmethyl)-3-(3-methoxyphenyl)-6-(methylsulfonyl)-5,6,7,8-tetrahydro-1,6-naphthyridin-2(1H)-one] | +A | > 10 | +B |
